pKi: −log10 of the molar value.
How the values were obtained:
PKCδ = molecular target: T1, PKCδ (Homo sapiens, UniProt Q05655); test: PKC competitive binding assay with [3H]-phorbol dibutyrate (PKCδ); conditions: cell-free, competition with [3H]-PDBu, PS vesicles
T1 construct: purchased Invitrogen
Protocol: (§1) With a panel of compounds bearing diverse functionality at C13, we began to explore how these modifications affect PKC binding and biological function. Because an obvious prerequisite for PKC pathway involvement is binding to PKC, compounds were initially evaluated for PKC affinity in a cell-free competitive binding assay with tritiated phorbol dibutyrate ([^3H]-PDBu). Assays were performed with representative members of both the conventional (PKCα) and novel (PKCδ) PKC families. Subsequently, compounds were assayed for PKC isoform translocation in real time in living cells using an optical assay. Translocation to the plasma membrane is the hallmark of PKC activation[18],[57],[60] and therefore monitoring the subcellular localization of a PKCδ-GFP fusion protein via confocal microscopy offers a convenient method for determining whether a compound enters a cell and engages its PKC isoform target. Finally and of clinical significance, we also determined the effect of compounds on CD22 surface expression in vitro in NALM6 cells, an ALL cell line previously studied in connection with CD22-targeted CAR T cell therapy, and two additional lymphoma cell lines[11],[31],[65].
PKC Binding Assay Protocol […]
competition with 3H-phorbol-12,13-dibutyrate (3H-PDBu) as described below. This procedure entails a glass-fiber filtration method to determine bound radioligand.
Preparation of PKC binding assay buffer
To a 50 mL polypropylene tube was added Tris-HCl (pH 7.4, 1 M, 1 mL), KCl (1 M, 2 mL), CaCl2 (0.1 M, 30 μL), and bovine serum albumin (BSA, 40 mg, Sigma-Aldrich). This mixture was diluted to 20 mL with deionized H2O and mixed gently. The buffer was stored on ice until use. The final […]
Supplementary Table1. PKC binding assay buffer composition.
Preparation of phosphatidylserine (PS) vesicles
For every two assays, 3.5 mg phosphatidylserine (Avanti Polar Lipids, porcine, 25 mg/mL CHCl3 solution) was concentrated by removing chloroform under a stream of nitrogen followed by reduced pressure. The solid PS was suspended as vesicles in freshly prepared PKC binding assay buffer (3.5 mL) by sonicating six times for 30 sec, with a 30 sec rest between sonications (Branson Sonifier 250, power = 2, 50% duty cycle). The resulting milky cloudy mixture (1 mg/mL) was stored […]
Preparation of PKC isoform solution
Assay PKC was prepared by dissolving a 4 μg aliquot of the indicated recombinant human PKC isoform (Invitrogen) into 11.6 mL of PKC binding assay buffer (this amount is sufficient for two assays). The diluted PKC was stored on ice for immediate use. […]
μCi/mmol) was diluted 10-fold with DMSO. The resulting 500 nM stock solution was further diluted with DMSO to 30 nM.
Preparation of analog compound dilutions
Compound dilutions were prepared by serially diluting from a chosen "high" concentration by factors of 3 or 4. For each analog compound, seven concentrations were used to define the […]
To a polypropylene tube was added 3.3 mL of 1 mg/mL PS vesicles solution, 11 mL of PKC isoform solution, and 1.1 mL of 30 nM 3H-PDBu solution were added. The resulting solution was vortexed to mix and stored on ice.
PKC binding assay protocol
- Glass-fiber filters (Whatman GF/B) were prepared by soaking them in a solution of aqueous polyethyleneimine (10% by vol, 18 mL) in deionized water (600 mL) for ≥1h.
- 500 mL "rinsing buffer" of 20 mM Tris, pH 7.4 was cooled on ice for the duration of the incubation period and for the remainder of the assay.
Triplicate data points were obtained for each analog concentration. For each data point, 280 μL of "Master Mix" Solution and 20 μL of analog compound at a specified concentration were added to a polypropylene tube. Non-specific 3H-PDBu binding was assessed in triplicate by substitution […]
μM). Maximal 3H-PDBu binding was assessed in triplicate by substitution of the analog compound with 20 μL DMSO. The solutions were vortexed to mix, incubated at 37 °C for 10 min, and […]

PKCδ-GFP fusion protein = molecular target: T2, PKCδ-GFP fusion protein (Homo sapiens, UniProt Q05655); test: PKCδ-GFP translocation assay in living CHO-k1 cells (confocal microscopy); type: cell-based, Chinese hamster; conditions: for Emax at 0.2 µM: CHO-K1, 200 nM compound; for Emax at 0.2 µM / Emax at 1 µM: read-out: % Translocation (maximum translocation of PKCδ-GFP to the plasma membrane); for minimum effective concentration required to induce translocation of PKC-GFP to the membrane: tested at 200 and 1000 nM; for Emax at 1 µM: CHO-K1, 1000 nM compound; for PKC activation dynamics (shape of translocation curve): Fig. 5c, d
T2 construct: expressed in transfected cells; host or cells: CHO-k1 (Chinese hamster ovary, ATCC)
T2 sequence (Q05655 whole entry, the tested form may be a part): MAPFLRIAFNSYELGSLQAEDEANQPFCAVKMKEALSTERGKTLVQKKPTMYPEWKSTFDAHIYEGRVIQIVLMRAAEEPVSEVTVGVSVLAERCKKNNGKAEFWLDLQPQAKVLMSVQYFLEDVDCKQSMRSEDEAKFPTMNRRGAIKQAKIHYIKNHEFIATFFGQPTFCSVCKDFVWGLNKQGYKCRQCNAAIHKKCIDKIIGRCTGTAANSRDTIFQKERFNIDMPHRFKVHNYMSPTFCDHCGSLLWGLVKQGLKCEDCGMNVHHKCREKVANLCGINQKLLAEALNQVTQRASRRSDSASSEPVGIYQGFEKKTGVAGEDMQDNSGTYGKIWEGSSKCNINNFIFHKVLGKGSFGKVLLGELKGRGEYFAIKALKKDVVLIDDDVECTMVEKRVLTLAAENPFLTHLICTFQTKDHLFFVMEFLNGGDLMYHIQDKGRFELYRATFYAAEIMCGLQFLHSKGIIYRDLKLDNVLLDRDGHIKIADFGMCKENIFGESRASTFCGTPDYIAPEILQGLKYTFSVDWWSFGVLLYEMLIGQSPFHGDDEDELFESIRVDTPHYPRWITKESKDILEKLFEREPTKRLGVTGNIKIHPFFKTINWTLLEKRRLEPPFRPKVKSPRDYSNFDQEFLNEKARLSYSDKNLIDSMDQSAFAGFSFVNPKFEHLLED
Protocol: as §1
Scale bar represents 25 μm. Experiments performed in n = 3 biological replicates. b–d Cytosolic fluorescence normalized to t = 0 (time immediately prior to addition of compound to media) and plotted against time. Error bars excluded for clarity (data presented as the mean of n = 3 biological replicates). Individual curves with error bars included in Supplementary Information.
PKCδ-GFP Translocation Assay Protocol
Chinese hamster ovary factor K1 (CHO-k1, ATCC) cells were cultured in F-12 Kaighn’s media (Hyclone, 10% fetal bovine serum, 1% penicillin/streptomycin added, reffered to as F-12 +/+ below) at 37 ° C in an incubator (5% CO2). Cell cultures were maintained by splitting cells 1:3 when they reached ~75-100% confluence (every 2-3 days) as follows:
(Gibco) was used to remove the cells from the culture flask (T75, Falcon). 1 mL of the cell suspension was then added to 9 mL of fresh F-12 +/+ and the sample was sub-cultured until reaching confluence (~2-3 days).
Cells were counted using a Countess II Automated Cell Counter (Fisher). The cell suspension was diluted to 240,000 cells/mL with fresh F-12 +/+ and 2.5 mL of this diluted stock was added to one well in a 6-well plate. The cells were then cultured for 24 hours.
Cells were transfected with Lipofectamine 2000 reagent (Invitrogen) or DA 13:11 at a 10:1 charge […]
F-12 +/+ was aspirated and cells were washed with F-12 -/-. 2 mL of fresh F-12 -/- was then added to each well, taking care not to disturb adherent cells. For each well of CHO-k1 cells, 12.5 µL Lipofectamine 2000 reagent (Invitrogen) was added to 250 µL Opti-MEM reduced serum media (Invitrogen) in a polypropylene tube and incubated for 20 minutes at RT. Meanwhile, for each well, 4 µg of PKCδ-GFP pDNA and 250 µL Opti-MEM reduced serum media was added to a separate polypropylene tube. 250 µL of the Lipofectamine 2000 suspension was added to the DNA suspension and the solution incubated for 30 minutes at RT. 500 µL of the Lipofectamine/DNA suspension was added to the respective wells of the 6-well plate. The cells were then incubated at 37 ° C (5% CO2) for ~24 hrs.
F-12 +/+ was aspirated and cells were washed with F-12 -/-. 2.4 mL of fresh F-12 -/- was then added to each well, taking care not to disturb adherent cells. A 4 µg aliquot of PKCδ-GFP pDNA was added to PBS (pH 5.5, final volume 100 µL). 5.6 µL of DA 13:11 (2 mM stock in DMSO) was then added to the DNA solution, and the mixture was gently mixed (by flicking) for 20 seconds, at which point it was added directly to the respective wells of the 6-well plate.

T1 sequence (Q05655 whole entry): as the sequence (Q05655 whole entry, the tested form may be a part) above

CCCC=CC=CC(=O)OC1C(=CC(=O)OC)CC2CC(C(C)O)OC(=O)CC(O)CC3CC(OC(C)=O)C(C)(C)C(O)(CC4CC(=CC(=O)OCC)CC(C=CC(C)(C)C1(O)O2)O4)O3 (stereo not shown) [SUW217]
pKi (PKCδ): 8.03
Emax at 0.2 µM (PKCδ-GFP fusion protein; CHO-k1 cells, n = 3): 75%
minimum effective concentration required to induce translocation of PKC-GFP to the membrane (PKCδ-GFP fusion protein; CHO-k1 cells): 200 nM

CCCC=CC=CC(=O)OC1C(=CC(=O)OC)CC2CC(C(C)O)OC(=O)CC(O)CC3CC(OC(C)=O)C(C)(C)C(O)(CC4CC(OC(=O)CCc5c[nH]c6ccccc56)CC(C=CC(C)(C)C1(O)O2)O4)O3 (stereo not shown) [SUW210]
pKi (PKCδ): 8.14
activity in the PKC translocation assay at 200 nM (PKCδ-GFP fusion protein; 200 nM): inactive
Emax at 1 µM (PKCδ-GFP fusion protein; CHO-k1 cells, n = 3): 75%
minimum effective concentration required to induce translocation of PKC-GFP to the membrane (PKCδ-GFP fusion protein; CHO-k1 cells): 1000 nM

CCCC=CC=CC(=O)OC1C(=CC(=O)OC)CC2CC(C(C)O)OC(=O)CC(O)CC3CC(OC(C)=O)C(C)(C)C(O)(CC4CC(OC(=O)CC56CC7CC(CC(C7)C5)C6)CC(C=CC(C)(C)C1(O)O2)O4)O3 (stereo not shown) [SUW209]
pKi (PKCδ): 8.46
activity in the PKC translocation assay at 200 nM (PKCδ-GFP fusion protein; 200 nM): inactive
Emax at 1 µM (PKCδ-GFP fusion protein; CHO-k1 cells, n = 3): 60%
minimum effective concentration required to induce translocation of PKC-GFP to the membrane (PKCδ-GFP fusion protein; CHO-k1 cells): 1000 nM

CCC/C=C/C=C/C(=O)O[C@H]1/C(=C/C(=O)OC)C[C@H]2C[C@H]([C@@H](C)O)OC(=O)C[C@H](O)C[C@@H]3C[C@H](OC(C)=O)C(C)(C)[C@](O)(C[C@@H]4C[C@@H](OC(C)=O)C[C@H](/C=C/C(C)(C)[C@]1(O)O2)O4)O3 [SUW207]
pKi (PKCδ): 8.27
Emax at 0.2 µM (PKCδ-GFP fusion protein; CHO-k1 cells, n = 3): 60%
minimum effective concentration required to induce translocation of PKC-GFP to the membrane (PKCδ-GFP fusion protein; CHO-k1 cells): 200 nM

CCCCCC#CC(=O)O[C@H]1/C(=C/C(=O)OC)C[C@H]2C[C@H]([C@@H](C)O)OC(=O)C[C@H](O)C[C@@H]3C[C@H](OC(C)=O)C(C)(C)[C@](O)(C[C@@H]4C[C@H](O)C[C@H](/C=C/C(C)(C)[C@]1(O)O2)O4)O3 [SUW204]
pKi (PKCδ): 8.43
cytosolic PKC translocated to the plasma membrane (PKCδ-GFP fusion protein; 200 nM, at 20 min): ~ 25%
Emax at 0.2 µM (PKCδ-GFP fusion protein; CHO-k1 cells, n = 3): 25%
minimum effective concentration required to induce translocation of PKC-GFP to the membrane (PKCδ-GFP fusion protein; CHO-k1 cells): 200 nM

CCCC=CC=CC(=O)OC1C(=CC(=O)OC)CC2CC(C(C)O)OC(=O)CC(O)CC3CC(OC(C)=O)C(C)(C)C(O)(CC4CC(=CC(=O)OCC)CC(C=CC(C)(C)C1(O)O2)O4)O3 (stereo not shown) [SUW218]
pKi (PKCδ): 8.18
% Translocation (maximum translocation of PKCδ-GFP to the plasma membrane) (PKCδ-GFP fusion protein; 200 nM compound, CHO-k1 cells, n = 3): 55%
minimum effective concentration required to induce translocation of PKC-GFP to the membrane (PKCδ-GFP fusion protein; CHO-k1 cells): 200 nM
PKC activation dynamics (shape of translocation curve) (PKCδ-GFP fusion protein): more sustained linear activation dynamics

CCCC=CC=CC(=O)OC1C(=CC(=O)OC)CC2CC(C(C)O)OC(=O)CC(O)CC3CC(OC(C)=O)C(C)(C)C(O)(CC4CC(OC(=O)Nc5ccccc5)CC(C=CC(C)(C)C1(O)O2)O4)O3 (stereo not shown) [SUW208]
pKi (PKCδ): 8.33
activity in the PKC translocation assay at 200 nM (PKCδ-GFP fusion protein; 200 nM): effectively translocated PKC to the plasma membrane
time required for translocation (PKCδ-GFP fusion protein; 200 nM): ~ 15 min
Emax at 0.2 µM (PKCδ-GFP fusion protein; CHO-k1 cells, n = 3): 75%
minimum effective concentration required to induce translocation of PKC-GFP to the membrane (PKCδ-GFP fusion protein; CHO-k1 cells): 200 nM
PKC activation dynamics (shape of translocation curve) (PKCδ-GFP fusion protein): delayed activation patterns
